Earlier results in Sander's compilation of Henry's law constants (doi:10.1021/je900477x).
“And” between values parts separate entries of the source, which are not always exact repeats. Equal values may be shown once.

Test: Henry solubility constant Hcp at 298.15 K (mol/(m3 Pa))
Conditions: reference: Ma et al. (2010b); cited value

Henry solubility constant Hcp	SMILES
0.11	c1ccc2c(c1)Cc1ccccc1-2 [2,3-benzindene]
0.2	c1ccc2cc3ccccc3cc2c1 [anthracene]
30 and 24	c1cc2ccc3ccc4ccc5cccc6c(c1)c2c3c4c56 [benzo[ghi]perylene]
2.3 and 2.7	c1ccc2c(c1)ccc1c3ccccc3ccc21 [chrysene]
29 and 20	c1ccc2c(c1)-c1ccc3ccc4cccc5cc-2c1c3c45 [indeno[1,2,3-cd]pyrene]
0.23	c1ccc2c(c1)ccc1ccccc12 [phenanthrene]

Continued, compound first:

SMILES	Henry solubility constant Hcp
c1cc2c3c(cccc3c1)CC2 [acenaphthene]	0.072 and 0.07
C1=Cc2cccc3cccc1c23 [acenaphthylene]	0.082 and 0.1
c1ccc2c(c1)cc1ccc3cccc4ccc2c1c34 [benzo[a]pyrene]	20 and 13
c1ccc2c(c1)-c1cccc3c1c-2cc1ccccc13 [benzo[b]fluoranthene]	15
c1ccc2c(c1)-c1cccc3cccc-2c13 [benzo[jk]fluorene]	0.69 and 0.75
c1ccc2cc3c(cc2c1)-c1cccc2cccc-3c12 [benzo[k]fluoranthene]	17 and 18
c1ccc2ccccc2c1 [naphthalene]	0.021 and 0.022
